The values that follow are results of earlier work, collected in US20260041141A1, “AEROSOL-GENERATING ARTICLE WITH AN ISOLATED AVERSIVE COMPONENT” (PHILIP MORRIS PRODUCTS S.A., priority 2022, published 2026).

Counter-ions that a name gives are not always drawn.

The conditions of the data set: reciprocal of the dilution that still has a bitter taste; quinine hydrochloride reference set at 200,000.
As for `CC1=C[C@H]2[C@H]3[C@H](C(C)=C4[C@H]5OC(=O)[C@@H](C)[C@@H]5CC[C@](C)(O)[C@@H]43)[C@@]13[C@@H]2[C@@](C)(O)CC[C@H]1[C@H](C)C(=O)O[C@@H]13` [Absinthin], the Bitterness value is 3,000,000.
In the case of `C[C@@]12C[C@@H](c3ccoc3)OC(=O)[C@@H]1CC[C@]1(C)[C@H]2[C@@H]2C=C[C@@]1(O)C(=O)O2` [Columbin], the Bitterness value is listed as 60,000,000.
Consider `COC1=C[C@@H](C)[C@@H]2C[C@H]3OC(=O)C[C@H]4C(C)=C(OC)C(=O)[C@H]([C@@]2(C)C1=O)[C@@]34C` [Quassin], for which the Bitterness value is given as 13,000,000.
As for `C=C[C@H]1C[N@@]2CC[C@H]1C[C@H]2[C@H](O)c1ccnc2ccc(OC)cc12` [Quinine hydrochloride], the Bitterness value is 200,000.
For the compound Amarogentin, the Bitterness value is 58,000,000.
